This passage reports inhibition of growth, IC50 and Activity results from ChEMBL document CHEMBL4602644, “Synthesis of PJOV56, a new quinoxalinyl-hydrazone derivative able to induce autophagy and apoptosis in colorectal cancer cells, and related compounds” (Bioorg Med Chem Lett, 2020).

Each structure is given as a SMILES string. The source made the active and inactive calls. The calls are words filed in the database; no cut-off is given here.

One experiment concerns HL-60. Kind of experiment: Cytotoxicity against human HL60 cells assessed as cell growth inhibition at 5 ug/ml measured after 72 hrs by MTT assay relative to control. Type of experiment: functional. Particulars: HL-60, 72 h, read-out: GI.
The subject of experiment [1] is HCT-116. Description: Cytotoxicity against human HCT116 cells assessed as cell growth inhibition at 5 ug/ml measured after 72 hrs by MTT assay relative to control. Type of experiment: functional. The settings on record: HCT-116, 72 h, read-out: GI. A general note: Formazan colour is commonly taken as a measure of viable cells.
The test system of another experiment is OVCAR-8. Description: Cytotoxicity against human OVCAR8 cells assessed as cell growth inhibition at 5 ug/ml measured after 72 hrs by MTT assay relative to control. Type of experiment: functional. The settings on record: OVCAR-8, 72 h, read-out: GI.
The test system of a further experiment is SF-295. Description: Cytotoxicity against human SF295 cells assessed as reduction in cell viability measured after 72 hrs by MTT assay. The experiment is classed as functional, cell-based. Particulars: SF-295, 72 h.
In another experiment the test system is L929. Kind of experiment: Cytotoxicity against mouse L929 cells assessed as reduction in cell viability measured after 72 hrs by MTT assay. Type of experiment: cell-based. The settings on record: L929, 72 h.
The test system of experiment [2] is HCT-116. Description: Induction of morphological changes in human HCT116 cells assessed as bleb formation at 0.2 uM measured after 48 hrs by propidium iodide staining based flow cytometry. Type of experiment: functional, cell-based.
Experiment [3] relates to HCT-116. Kind of experiment: Induction of morphological changes in human HCT116 cells assessed as cell pyknosis at 0.2 uM measured after 48 hrs by propidium iodide staining based flow cytometry. The experiment is classed as functional. A general note: In flow cytometry, cells or beads pass a laser one at a time.
The test system of experiment [4] is HCT-116. Kind of experiment: Induction of DNA fragmentation in human HCT116 cells at 0.2 uM measured after 48 hrs by propidium iodide staining based flow cytometry relative to control. Type of experiment: functional.
The test system of experiment [5] is HCT-116. Kind of experiment: Cell cycle arrest in human HCT116 cells assessed as accumulation at G0/G1 phase at 0.2 uM measured after 48 hrs by propidium iodide staining based flow cytometry (reference value: 41.67 %). The experiment is classed as functional.
Experiment [6] concerns HCT-116. Description: Cell cycle arrest in human HCT116 cells assessed as accumulation at S phase at 0.2 uM measured after 48 hrs by propidium iodide staining based flow cytometry (reference value: 33.29 %). Type of experiment: functional.
Experiment [7] deals with HCT-116. Kind of experiment: Cell cycle arrest in human HCT116 cells assessed as accumulation at G2/M phase at 0.2 uM measured after 48 hrs by propidium iodide staining based flow cytometry (reference value: 24.98 %). Type of experiment: functional.
In experiment [8] the test system is HCT-116. Kind of experiment: Cell cycle arrest in human HCT116 cells assessed as accumulation at G0/G1 phase at 0.1 uM measured after 48 hrs by propidium iodide staining based flow cytometry (reference value: 41.67 %). Type of experiment: functional.
For experiment [9], the system named is HCT-116. Kind of experiment: Cell cycle arrest in human HCT116 cells assessed as accumulation at S phase at 0.1 uM measured after 48 hrs by propidium iodide staining based flow cytometry (reference value: 33.29 %). Type of experiment: functional.
Experiment [10] has as its system HCT-116. Description: Cell cycle arrest in human HCT116 cells assessed as accumulation at G2/M phase at 0.1 uM measured after 48 hrs by propidium iodide staining based flow cytometry (reference value: 24.98 %). The experiment is classed as functional.

Consider `O=[N+]([O-])c1ccc(/C=N/Nc2cnc3ccccc3n2)s1`, for which the results for the inhibition of growth at 5 µg/mL in the experiment with HL-60, in the experiment on HCT-116 [1] and in the experiment on OVCAR-8 were 0%, 0.03% and 0%, respectively.

With `C(=N\Nc1cnc2ccccc2n1)/c1ccc[nH]1`, the results for the inhibition of growth at 5 µg/mL in the experiment with HL-60, in the experiment on HCT-116 [1] and with OVCAR-8 were 96.3%, 54.3% and 52.3%, respectively.

As to `C(=N\Nc1cnc2ccccc2n1)/c1ccco1`, the inhibition of growth at 5 µg/mL stood at 0% in the experiment with HL-60, 9.01% with HCT-116 [1] and 3.56% in the experiment on OVCAR-8.

On to `C(=N\Nc1cnc2ccccc2n1)/c1ccncc1`, for which the results for the inhibition of growth at 5 µg/mL in the experiment with HL-60, with HCT-116 [1] and in the experiment on OVCAR-8 were 0%, 33.7% and 14.9%, respectively.

For `C(=N\Nc1cnc2ccccc2n1)/c1cnc[nH]1`, the inhibition of growth at 5 µg/mL with HL-60 stood at 98.8%; in the experiment with HCT-116 [1], 77.2%; with OVCAR-8 it was 57.4%.

For `COc1cccc2c1C(=O)c1c(O)c3c(c(O)c1C2=O)C[C@@](O)(C(=O)CO)C[C@@H]3O[C@H]1C[C@H](N)[C@H](O)[C@H](C)O1` [DOXORUBICIN], the half-inhibitory concentration (IC50) (in general, the concentration that gives 50% inhibition) was 250 nM in the experiment on SF-295 and 660 nM with L929. The result with HCT-116 [2] and in the experiment with HCT-116 [3] was Active. The Activity amounted to 6.02% in the experiment on HCT-116 [4], 16.48% with HCT-116 [5], 22.72% in the experiment with HCT-116 [6] and 60.53% in the experiment on HCT-116 [7].

Take `C(=N\Nc1cnc2ccccc2n1)/c1cccnc1`: the results for the inhibition of growth at 5 µg/mL in the experiment with HL-60, in the experiment with HCT-116 [1] and in the experiment on OVCAR-8 were 0%, 18.8% and 10.2%, respectively.

As for `CC(=O)O[C@H]1C(=O)[C@@]2(C)[C@H]([C@H](OC(=O)c3ccccc3)[C@]3(O)C[C@H](OC(=O)[C@H](O)[C@@H](NC(=O)c4ccccc4)c4ccccc4)C(C)=C1C3(C)C)[C@]1(OC(C)=O)CO[C@@H]1C[C@@H]2O` [PACLITAXEL], the Activity with HCT-116 [8] is reported as 13.83%; in the experiment with HCT-116 [9], 25.09%; in the experiment with HCT-116 [10] it was 61.69%.

As for `O=[N+]([O-])c1ccc(/C=N/Nc2cnc3ccccc3n2)o1`, the inhibition of growth at 5 µg/mL with HL-60 was 12.2%; in the experiment on HCT-116 [1] it was 27.1%; in the experiment on OVCAR-8, 3.95%.

For the molecule `C(=N\Nc1cnc2ccccc2n1)/c1cccs1`, the inhibition of growth at 5 µg/mL with HL-60 amounted to 19.7%; in the experiment on HCT-116 [1], 21%; with OVCAR-8 it was 0%.
